A short description of experiment [1]: Antiproliferative activity against p53 deficient human HCT116 cells after 96 hrs by MTS assay. The experiment is classed as functional, cell-based. Particulars: HCT-116, 96 h.
Experiment [2] in a line: Antiproliferative activity against p53 expressing human HCT116 cells after 96 hrs by MTS assay. Format: functional, cell-based. Particulars: HCT-116, 96 h. Background: Tetrazolium dyes change colour on reduction, which living cells bring about.
Experiment [3] deals with NHDF. Kind of experiment: Cytotoxicity against human NHDF cells after 96 hrs by MTS assay. Format: cell-based.
For experiment [4], the system named is HCT-116. In words: Induction of apoptosis in p53 deficient human HCT116 cells assessed as caspase-3/7 activation at IC50 after 30 to 48 hrs by luminescence assay. The experiment is classed as functional, cell-based.
Experiment [5] in a line: Binding affinity to Zn2+ assessed as compound-metal complex formation at compound to metal ratio of 1:0, 1:1, 2:1, 3:1, 4:1 and 5:1 after 30 mins by UV-visible spectrophotometry.
The subject of experiment [6] is HCT-116. In words: Induction of apoptosis in p53 expressing human HCT116 cells assessed as caspase-3/7 activation at IC50 after 30 to 48 hrs by luminescence assay. The experiment is classed as functional, cell-based.
Experiment [7] relates to HCT-116. Kind of experiment: Induction of apoptosis in p53 expressing human HCT116 cells assessed as early apoptotic cells at IC50 after 48 hrs by acridine orange/ethidium bromide staining-based epifluorescence microscopy. The experiment is classed as functional, cell-based.
Experiment [8] deals with HCT-116. Kind of experiment: Induction of reactive oxygen species generation in p53 expressing human HCT116 cells at 2 times IC50 for 24 hrs by inverted fluorescent microscopy. Format: functional, cell-based.
Experiment [9] can be described thus: Binding affinity to Cu2+ assessed as compound-metal complex formation at compound to metal ratio of 1:0, 1:1, 2:1, 3:1, 4:1 and 5:1 after 30 mins by UV-visible spectrophotometry.
The test system of experiment [10] is Calf thymus DNA. Kind of experiment: Binding affinity to calf thymus DNA assessed as hypochromism at 3 to 25 uM after 1.5 hrs by UV-visible spectrophotometry. Format: nucleic-acid assay. As to conditions: Bos taurus.
Experiment [11] concerns HCT-116. Kind of experiment: Induction of apoptosis in p53 expressing human HCT116 cells assessed as late apoptotic cells at IC50 after 48 hrs by acridine orange/ethidium bromide staining-based epifluorescence microscopy. Format: functional, cell-based.
For experiment [12], the system named is HCT-116. Kind of experiment: Induction of intracellular reactive oxygen species generation in p53 expressing human HCT116 cells at IC50 after 6 hrs by fluorescence-based plate reader analysis. The experiment is classed as functional, cell-based.
The subject of experiment [13] is HCT-116. Kind of experiment: Antiproliferative activity against p53 expressing human HCT116 cells at IC50 after 96 hrs by MTS assay in presence of 50 uM of ZnCl2. Format: functional, cell-based.
In experiment [14] the test system is HCT-116. In words: Decrease in GSH level in p53 expressing human HCT116 cells at IC50 after 12 hrs by luminescence analysis. Format: functional, cell-based.
Experiment [15] is described as follows: Antiproliferative activity against p53 expressing human HCT116 cells at IC50 after 96 hrs by MTS assay in presence of 20 uM CuCl2. The experiment is classed as functional, HCT-116.
For experiment [16], the system named is HCT-116. Kind of experiment: Antiproliferative activity against p53 expressing human HCT116 cells at IC50 after 3 to 96 hrs by MTS assay in presence of 10 to 50 uM glucose. The experiment is classed as functional, cell-based.
For experiment [17], the system named is HCT-116. Kind of experiment: Antiproliferative activity against p53 deficient human HCT116 cells at IC50 after 96 hrs by MTS assay in presence of 50 uM ZnCl2. The experiment is classed as functional, cell-based.
Experiment [18] has as its system HCT-116. In words: Induction of intracellular reactive oxygen species generation in p53 expressing human HCT116 cells at IC50 after 12 hrs by fluorescence-based plate reader analysis. Format: functional, cell-based.
The nature of experiment [19]: Antiproliferative activity against p53 deficient human HCT116 cells at IC50 after 96 hrs by MTS assay in presence of 20 uM CuCl2. The experiment is classed as functional, HCT-116.

Results on 21 compounds are retold here after ChEMBL document CHEMBL3774385, “Small molecule glycoconjugates with anticancer activity” (Eur J Med Chem, 2016).

The source made the active and inactive calls. The calls are words filed in the database; no cut-off is given here.

As for `Cc1ccc2c(O)c(C(=O)O)ccc2n1`, the IC50 in experiment [1] and in experiment [2] was above 750 µM in each case.

For the compound `CC(=O)OC[C@H]1O[C@@H](Sc2ccc(NC(=O)c3ccc4nc(C)ccc4c3O)cc2)[C@H](OC(C)=O)[C@@H](OC(C)=O)[C@@H]1OC(C)=O`, the 50% inhibitory concentration (IC50) in [1] and in experiment [2] was above 25 µM each time.

On to `CC(=O)OC[C@H]1O[C@@H](SC(=O)c2ccc3ccc(C)nc3c2O)[C@H](OC(C)=O)[C@@H](OC(C)=O)[C@H]1OC(C)=O`, for which the half-inhibitory concentration (IC50) in [1] and in experiment [2] was above 25 µM in each case.

For the compound `CC(=O)OC[C@H]1O[C@@H](Sc2ccc(NC(=O)c3ccc4ccc(C)nc4c3O)cc2)[C@H](OC(C)=O)[C@@H](OC(C)=O)[C@@H]1OC(C)=O`, the IC50 in experiment [3] came out at 12.4 µM; in experiment [1], 10.7 µM; in experiment [2] it was 12 µM. Further, the result in experiment [4] and in [6] was inactive. Moreover, the result in [5], in experiment [7], in experiment [8], in experiment [9] and in experiment [11] was Active. Moreover, the Activity in [10] amounted to 10.7%.

For the compound `CC(=O)OC[C@H]1O[C@@H](NC(=O)c2ccc3ccc(C)nc3c2O)[C@H](OC(C)=O)[C@@H](OC(C)=O)[C@@H]1OC(C)=O`, the IC50 in [3] was determined as 23.6 µM; in experiment [1] it was 15.1 µM; in experiment [2], 13.6 µM. Also, the outcome in [5], in experiment [6], in [12], in experiment [7], in experiment [8] and in experiment [9] was Active. Moreover, the outcome in experiment [11] and in [14] was Active. Moreover, the Activity came out at 16.2% in experiment [10] and 50% in experiment [15]. Moreover, the result in [13] was inactive.

In the case of `CC(=O)OC[C@H]1O[C@@H](Sc2ccc(N)cc2)[C@H](OC(C)=O)[C@@H](OC(C)=O)[C@@H]1OC(C)=O`, the concentration for half-maximal inhibition (IC50) in experiment [1] and in [2] was above 150 µM throughout.

Consider `CC(=O)OC[C@H]1O[C@@H](Sc2ccc(NC(=O)c3ccc4ccc(C)nc4c3O)cn2)[C@H](OC(C)=O)[C@@H](OC(C)=O)[C@H]1OC(C)=O`, for which the IC50 worked out at 9.32 µM in experiment [3], 7.05 µM in [1] and 7.86 µM in [2]. The outcome in experiment [4], in [6] and in experiment [16] was inactive. In addition, the result in experiment [5], in experiment [7], in [8], in experiment [9] and in experiment [11] was Active. In addition, the Activity in experiment [10] amounted to 26.1%.

Consider `CC(=O)OC[C@H]1O[C@@H](SC(=O)c2ccc3ccc(C)nc3c2O)[C@H](OC(C)=O)[C@@H](OC(C)=O)[C@@H]1OC(C)=O`, for which the IC50 in experiment [1] and in experiment [2] was above 25 µM each time.

For `CC(=O)OC[C@H]1O[C@@H](Sc2ccc(NC(=O)c3ccc4ccc(C)nc4c3O)cc2)[C@H](OC(C)=O)[C@@H](OC(C)=O)[C@H]1OC(C)=O`, the figures for the half-inhibitory concentration (IC50) in experiment [3], in [1] and in experiment [2] were 13.3 µM, 8.94 µM and 12.6 µM, respectively. Moreover, the result in experiment [5], in experiment [6], in experiment [7], in experiment [8], in experiment [9] and in [11] was Active. Besides, the result in [16] was inactive. In [10], the Activity came out at 17.2%.

For `Cc1ccc2ccc(C(=O)N[C@@H]3O[C@H](CO)[C@@H](O)[C@H](O)[C@H]3O)c(O)c2n1`, the 50% inhibitory concentration (IC50) in [1] and in experiment [2] was above 750 µM in each case.

Consider `Cc1ccc2ccc(C(=O)O)c(O)c2n1`, for which the IC50 in experiment [1] and in experiment [2] was above 750 µM throughout.

Consider `CC(=O)OC[C@H]1O[C@@H](SC(=O)c2ccc3nc(C)ccc3c2O)[C@H](OC(C)=O)[C@@H](OC(C)=O)[C@@H]1OC(C)=O`, for which the half-maximal inhibitory concentration (IC50) in experiment [1] and in experiment [2] was above 25 µM in each case.

Regarding `CC(=O)OC[C@H]1O[C@@H](Sc2ccc(N)cn2)[C@H](OC(C)=O)[C@@H](OC(C)=O)[C@@H]1OC(C)=O`, the 50% inhibitory concentration (IC50) in [1] and in experiment [2] was above 150 µM each time.

Regarding `CC(=O)OC[C@H]1O[C@@H](Sc2ccc(N)cc2)[C@H](OC(C)=O)[C@@H](OC(C)=O)[C@H]1OC(C)=O`, the IC50 in experiment [1] and in [2] was above 150 µM throughout.

In the case of `CC(=O)OC[C@H]1O[C@@H](S)[C@H](OC(C)=O)[C@@H](OC(C)=O)[C@@H]1OC(C)=O`, the results for the IC50 in [1] and in [2] were above 500 µM and above 750 µM, respectively.

`CC(=O)OC[C@H]1O[C@@H](Sc2ccc(NC(=O)c3ccc4ccc(C)nc4c3O)cn2)[C@H](OC(C)=O)[C@@H](OC(C)=O)[C@@H]1OC(C)=O`: the result in [17], in experiment [4], in experiment [6] and in experiment [16] was inactive. Also, the results for the half-inhibitory concentration (IC50) in experiment [3], in experiment [1] and in experiment [2] were 11.5 µM, 4.42 µM and 4.88 µM, respectively. Besides, the outcome in experiment [5], in [18], in experiment [7], in experiment [8], in experiment [9] and in experiment [11] was Active. In experiment [14], the outcome was Active. The Activity in [19] came out at 75%; in experiment [10], 41.5%.

With `Cc1ccc2ccc(C(=O)N[C@@H]3O[C@H](COCc4ccccc4)[C@H](OCc4ccccc4)[C@H](OCc4ccccc4)[C@H]3OCc3ccccc3)c(O)c2n1`, the IC50 in [3] worked out at 18.6 µM; in experiment [1] it was 11.7 µM; in experiment [2], 11.6 µM. Also, the result in experiment [4], in [5], in [18], in experiment [6], in experiment [7] and in experiment [8] was Active. Further, the result in experiment [9], in experiment [11] and in [14] was Active. Moreover, in experiment [16], the outcome was inactive. In addition, in experiment [10], the Activity stood at 9%.

For the compound `CC(=O)OC[C@H]1O[C@@H](SC(=O)c2ccc3nc(C)ccc3c2O)[C@H](OC(C)=O)[C@@H](OC(C)=O)[C@H]1OC(C)=O`, the half-inhibitory concentration (IC50) in experiment [1] and in [2] was above 25 µM each time.

In the case of `CC(=O)OC[C@H]1O[C@@H](Sc2ccc(N)cn2)[C@H](OC(C)=O)[C@@H](OC(C)=O)[C@H]1OC(C)=O`, the IC50 in experiment [1] and in experiment [2] was above 150 µM throughout.

Consider `CC(=O)OC[C@H]1O[C@@H](N)[C@H](OC(C)=O)[C@@H](OC(C)=O)[C@@H]1OC(C)=O`, for which the IC50 was above 300 µM in [1] and above 450 µM in experiment [2].

`COc1cccc2c1C(=O)c1c(O)c3c(c(O)c1C2=O)C[C@@](O)(C(=O)CO)C[C@@H]3O[C@H]1C[C@H](N)[C@H](O)[C@H](C)O1` [DOXORUBICIN]: the values for the 50% inhibitory concentration (IC50) in experiment [3], in [1] and in [2] were 3.38 µM, 0.38 µM and 0.34 µM, respectively.

What is called IC50 is the concentration that inhibits the measured activity by half. Low readings indicate greater potency in that assay, high ones weaker potency in that assay.
